# Target: T1, IKZF2 (Homo sapiens, UniProt Q96SW2+Q9UKS7)
# T1 construct: host or cells: Jurkat-IKZF2-HiBiT
# Test: IKZF2 HiBiT degradation assay (Jurkat-IKZF2-HiBiT)
# Assay type: cell-based
# Conditions: for DC50: read-out: IKZF2 degradation DC50, Jurkat-IKZF2-HiBiT cells, 24 hours; for Dmax: read-out: IKZF2 degradation Dmax (%)
# Description: Degradation of IKZF2 protein was determined by IKZF2 HiBiT assay using the Jurkat-IKZF2-HiBiT (Promega) cell line. […] Compounds were serially diluted in culture medium, and 20 μl of the diluted compounds were added to the appropriate wells of the plate. After the addition of compounds, the cells were incubated at 37° C. in an atmosphere of 5% CO2 for 24 hours. At the end of treatment, 40 ul of Nano-Glo HiBiT Lytic Detection Reagent (Promega) was added to each well, and then the plates were incubated at room temperature for 10-20 minutes. The luminescent signal was measured using a CALRIOstar plate reader (BMG Labtech). The readings were normalized to the DMSO-treated cells and the IC50 was calculated by nonlinear regression (four parameters sigmoid fitted with variable slope, least squares fit, and no constraint) analysis using the GraphPad Prism 8 software.
# T1 sequence (Q9UKS7 whole entry): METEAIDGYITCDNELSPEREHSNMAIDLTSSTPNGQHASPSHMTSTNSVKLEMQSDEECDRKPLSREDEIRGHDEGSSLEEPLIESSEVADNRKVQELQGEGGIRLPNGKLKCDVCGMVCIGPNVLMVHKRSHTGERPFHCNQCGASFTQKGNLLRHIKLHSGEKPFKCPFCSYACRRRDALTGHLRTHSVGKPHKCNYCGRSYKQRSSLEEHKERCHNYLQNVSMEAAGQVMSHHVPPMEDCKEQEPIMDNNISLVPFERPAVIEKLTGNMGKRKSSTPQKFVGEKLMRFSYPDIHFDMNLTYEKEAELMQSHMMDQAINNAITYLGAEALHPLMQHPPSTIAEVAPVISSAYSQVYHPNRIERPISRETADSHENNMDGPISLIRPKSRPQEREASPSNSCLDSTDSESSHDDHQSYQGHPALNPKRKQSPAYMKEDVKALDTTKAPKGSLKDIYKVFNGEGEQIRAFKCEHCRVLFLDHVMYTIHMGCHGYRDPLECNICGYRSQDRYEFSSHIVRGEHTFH
# T1 sequence (Q96SW2 whole entry): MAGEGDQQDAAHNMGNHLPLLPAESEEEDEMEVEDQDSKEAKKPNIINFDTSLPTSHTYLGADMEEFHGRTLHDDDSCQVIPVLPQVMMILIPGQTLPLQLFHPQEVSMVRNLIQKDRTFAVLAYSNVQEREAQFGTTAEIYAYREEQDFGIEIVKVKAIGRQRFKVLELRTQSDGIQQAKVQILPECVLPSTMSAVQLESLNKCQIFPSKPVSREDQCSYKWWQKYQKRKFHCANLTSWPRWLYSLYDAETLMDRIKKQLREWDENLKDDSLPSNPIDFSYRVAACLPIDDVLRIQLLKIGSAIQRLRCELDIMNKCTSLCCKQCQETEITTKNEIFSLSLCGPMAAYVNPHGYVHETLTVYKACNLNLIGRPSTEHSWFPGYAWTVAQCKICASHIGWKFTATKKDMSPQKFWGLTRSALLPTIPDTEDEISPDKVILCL
# T1 sequence (Q16531 2-1140 partner limits assumed): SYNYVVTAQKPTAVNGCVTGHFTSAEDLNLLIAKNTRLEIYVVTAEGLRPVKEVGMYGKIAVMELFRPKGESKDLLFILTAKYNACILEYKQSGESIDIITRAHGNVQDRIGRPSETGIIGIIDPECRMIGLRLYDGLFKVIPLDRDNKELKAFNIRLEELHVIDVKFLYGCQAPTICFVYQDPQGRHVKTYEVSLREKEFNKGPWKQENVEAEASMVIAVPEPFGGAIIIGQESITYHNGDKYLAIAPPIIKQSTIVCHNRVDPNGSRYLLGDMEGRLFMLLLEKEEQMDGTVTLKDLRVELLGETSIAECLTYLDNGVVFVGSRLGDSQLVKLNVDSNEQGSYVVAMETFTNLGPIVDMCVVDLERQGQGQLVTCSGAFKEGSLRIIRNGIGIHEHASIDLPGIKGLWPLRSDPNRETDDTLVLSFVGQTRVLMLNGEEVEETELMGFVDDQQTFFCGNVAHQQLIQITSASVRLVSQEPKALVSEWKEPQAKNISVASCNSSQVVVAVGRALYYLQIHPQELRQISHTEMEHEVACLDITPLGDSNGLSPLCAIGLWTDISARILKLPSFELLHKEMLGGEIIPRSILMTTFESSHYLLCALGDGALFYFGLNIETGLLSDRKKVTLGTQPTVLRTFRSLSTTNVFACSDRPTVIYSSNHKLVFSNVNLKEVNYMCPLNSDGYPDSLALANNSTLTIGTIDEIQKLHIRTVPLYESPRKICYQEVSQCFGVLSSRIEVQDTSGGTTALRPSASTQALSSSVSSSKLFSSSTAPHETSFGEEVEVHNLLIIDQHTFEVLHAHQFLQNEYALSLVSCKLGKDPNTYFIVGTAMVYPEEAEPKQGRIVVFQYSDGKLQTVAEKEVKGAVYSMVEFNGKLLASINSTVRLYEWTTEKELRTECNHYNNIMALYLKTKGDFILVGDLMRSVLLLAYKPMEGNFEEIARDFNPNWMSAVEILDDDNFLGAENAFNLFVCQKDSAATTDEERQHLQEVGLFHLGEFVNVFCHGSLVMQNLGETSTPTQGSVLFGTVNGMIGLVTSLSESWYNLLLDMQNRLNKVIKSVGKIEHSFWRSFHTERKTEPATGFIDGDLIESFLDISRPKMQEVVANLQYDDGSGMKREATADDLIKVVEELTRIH
compound,measurement,value
"O=C1CCC(N2Cc3cc4c(cc3C2=O)OC[C@@H]2CN(Cc3ccccc3)CCN42)C(=O)N1 (stereo partly drawn) [Compound C1, 3-((S)-3-benzyl-8-oxo-1,2,3,4,4a,5,8,10-octahydro-9H-pyrazino[1′,2′:4,5][1,4]oxazino[2,3-f]isoindol-9-yl)piperidine-2,6-dione]",DC50,> 2000 nM
same,Dmax,27%
"O=C1CCC(N2Cc3cc4c(cc3C2=O)OC[C@@H]2CN(CC3CCCCC3)CCN42)C(=O)N1 (stereo partly drawn) [Compound C2, 3-((S)-3-(cyclohexylmethyl)-8-oxo-1,2,3,4,4a,5,8,10-octahydro-9H-pyrazino[1′,2′:4,5][1,4]oxazino[2,3-f]isoindol-9-yl)piperidine-2,6-dione]",DC50,1400 nM
same,Dmax,56%
"CCCN1CCN2c3cc4c(cc3OC[C@@H]2C1)C(=O)N(C1CCC(=O)NC1=O)C4 (stereo partly drawn) [Compound C3, 3-((S)-8-oxo-3-385.21propyl-1,2,3,4,4a,5,8,10-octahydro-9H-pyrazino[1′,2′:4,5][1,4]oxazino[2,3-f]isoindol-9-yl)piperidine-2,6-dione]",DC50,> 2000 nM
same,Dmax,58%
"O=C1CCC(N2Cc3cc4c(cc3C2=O)OC[C@@H]2CN(CC3CCCC3)CCN42)C(=O)N1 (stereo partly drawn) [Compound C4, 3-((S)-3-(cyclopentylmethyl)-8-oxo-1,2,3,4,4a,5,8,10-octahydro-9H-pyrazino[1′,2′:4,5][1,4]oxazino[2,3-f]isoindol-9-yl)piperidine-2,6-dione]",DC50,430 nM
same,Dmax,61%
"CC(=O)N1CCC(CCN2CCN3c4cc5c(cc4OC[C@@H]3C2)C(=O)N(C2CCC(=O)NC2=O)C5)CC1 (stereo partly drawn) [Compound C5, 3-((S)-3-(2-(1-acetylpiperidin-4-yl)ethyl)-8-oxo-1,2,3,4,4a,5,8,10-octahydro-9H-pyrazino[1′,2′:4,5][1,4]oxazino[2,3-f]isoindol-9-yl)piperidine-2,6-dione]",DC50,> 2000 nM
same,Dmax,38%
"CC(=O)N1CC2(CCC(CN3CCN4c5cc6c(cc5OC[C@@H]4C3)C(=O)N(C3CCC(=O)NC3=O)C6)CC2)C1 (stereo partly drawn) [Compound C6, 3-((S)-3-((2-acetyl-2-azaspiro[3.5]nonan-7-yl)methyl)-8-oxo-1,2,3,4,4a,5,8,10-octahydro-9H-pyrazino[1′,2′:4,5][1,4]oxazino[2,3-f]isoindol-9-yl)piperidine-2,6-dione]",DC50,330 nM
same,Dmax,62%
"O=C1CCC(N2Cc3cc4c(cc3C2=O)OC[C@@H]2CN(CC3CCN(c5ccccc5)CC3)CCN42)C(=O)N1 (stereo partly drawn) [Compound C7, 3-((S)-8-oxo-3-((1-phenylpiperidin-4-yl)methyl)-1,2,3,4,4a,5,8,10-octahydro-9H-pyrazino[1′,2′:4,5][1,4]oxazino[2,3-f]isoindol-9-yl)piperidine-2,6-dione]",DC50,320 nM
same,Dmax,50%
"Cn1cc(-c2cccc(CN3CCN4c5cc6c(cc5OC[C@@H]4C3)C(=O)N([C@H]3CCC(=O)NC3=O)C6)c2)cn1 [Compound C20, (S)-3-((S)-3-(3-(1-methyl-1H-pyrazol-4-yl)benzyl)-8-oxo-1,2,3,4,4a,5,8,10-octahydro-9H-pyrazino[1′,2′:4,5][1,4]oxazino[2,3-f]isoindol-9-yl)piperidine-2,6-dione]",DC50,> 10000 nM
same,Dmax,27%
"COc1ccc(C(=O)Nc2cccc(CN3CCN4c5cc6c(cc5OC[C@@H]4C3)C(=O)N([C@H]3CCC(=O)NC3=O)C6)c2)cc1 [Compound C21, N-(3-(((S)-9-((S)-2,6-dioxopiperidin-3-yl)-8-oxo-1,2,4a,5,9,10-hexahydro-8H-pyrazino[1′,2′:4,5][1,4]oxazino[2,3-f]isoindol-3(4H)-yl)methyl)phenyl)-4-methoxybenzamide]",DC50,9 nM
same,Dmax,85%
"COc1ccc(C(=O)Nc2cccc(CN3CCN4c5cc6c(cc5OC[C@H]4C3)C(=O)N(C3CCC(=O)NC3=O)C6)c2)cc1 (stereo partly drawn) [Compound C22, N-(3-(((4aR)-9-(2,6-dioxopiperidin-3-yl)-8-oxo-1,2,4a,5,9,10-hexahydro-8H-pyrazino[1′,2′:4,5][1,4]oxazino[2,3-f]isoindol-3(4H)-yl)methyl)phenyl)-4-methoxybenzamide]",DC50,> 1000 nM
same,Dmax,44%
"Cc1ccc(C(=O)Nc2cccc(CN3CCN4c5cc6c(cc5OC[C@@H]4C3)C(=O)N([C@H]3CCC(=O)NC3=O)C6)c2)cc1 [Compound C23, N-(3-(((S)-9-((S)-2,6-dioxopiperidin-3-yl)-8-oxo-1,2,4a,5,9,10-hexahydro-8H-pyrazino[1′,2′:4,5][1,4]oxazino[2,3-f]isoindol-3(4H)-yl)methyl)phenyl)-4-methylbenzamide]",DC50,18 nM
same,Dmax,77%
"O=C1CC[C@H](N2Cc3cc4c(cc3C2=O)OC[C@@H]2CN(Cc3cccc(NC(=O)c5ccc(Cl)cc5)c3)CCN42)C(=O)N1 [Compound C24, 4-chloro-N-(3-(((S)-9-((S)-2,6-dioxopiperidin-3-yl)-8-oxo-1,2,4a,5,9,10-hexahydro-8H-pyrazino[1′,2′:4,5][1,4]oxazino[2,3-f]isoindol-3(4H)-yl)methyl)phenyl)benzamide]",DC50,25 nM
same,Dmax,77%
"O=C1CC[C@H](N2Cc3cc4c(cc3C2=O)OC[C@@H]2CN(Cc3cccc(NC(=O)c5ccccc5Cl)c3)CCN42)C(=O)N1 [Compound C25, 2-chloro-N-(3-(((S)-9-((S)-2,6-dioxopiperidin-3-yl)-8-oxo-1,2,4a,5,9,10-hexahydro-8H-pyrazino[1′,2′:4,5][1,4]oxazino[2,3-f]isoindol-3(4H)-yl)methyl)phenyl)benzamide]",DC50,> 1000 nM
same,Dmax,45%
"CC(=O)Nc1cccc(CN2CCN3c4cc5c(cc4OC[C@@H]3C2)C(=O)N([C@H]2CCC(=O)NC2=O)C5)c1 [Compound C26, N-(3-(((S)-9-((S)-2,6-dioxopiperidin-3-yl)-8-oxo-1,2,4a,5,9,10-hexahydro-8H-pyrazino[1′,2′:4,5][1,4]oxazino[2,3-f]isoindol-3(4H)-yl)methyl)phenyl)acetamide]",DC50,> 1000 nM
same,Dmax,33%
"COc1ccc(C(=O)N(C)c2cccc(CN3CCN4c5cc6c(cc5OC[C@@H]4C3)C(=O)N([C@H]3CCC(=O)NC3=O)C6)c2)cc1 [Compound C27, N-(3-(((S)-9-((S)-2,6-dioxopiperidin-3-yl)-8-oxo-1,2,4a,5,9,10-hexahydro-8H-pyrazino[1′,2′:4,5][1,4]oxazino[2,3-f]isoindol-3(4H)-yl)methyl)phenyl)-4-methoxy-N-methylbenzamide]",DC50,> 10000 nM
same,Dmax,21%
"O=C1CC[C@H](N2Cc3cc4c(cc3C2=O)OC[C@@H]2CN(Cc3cccc(NS(=O)(=O)c5ccccc5)c3)CCN42)C(=O)N1 [Compound C28, N-(3-(((S)-9-((S)-2,6-dioxopiperidin-3-yl)-8-oxo-1,2,4a,5,9,10-hexahydro-8H-pyrazino[1′,2′:4,5][1,4]oxazino[2,3-f]isoindol-3(4H)-yl)methyl)phenyl)benzenesulfonamide]",DC50,> 1000 nM
same,Dmax,11%
"O=C1CC[C@H](N2Cc3cc4c(cc3C2=O)OC[C@@H]2CN(CC3CCCC3)CCN42)C(=O)N1 [Compound C29, (S)-3-((S)-3-(cyclopentylmethyl)-8-oxo-1,2,3,4a,5,8,10-octahydro-9H-pyrazino[1′,2′:4,5][1,4]oxazino[2,3-f]isoindol-9-yl)piperidine-2,6-dione]",DC50,402 nM
same,Dmax,61%

# Source: patent US20260265271A1, “Cereblon Ligands and Uses Thereof” (REGENTS OF THE UNIVERSITY OF MICHIGAN, priority 2022, published 2026)
